Experiment [1] concerns db/db mice. Briefly: Blood triglyceride lowering in db/db mice in vivo. The note with it: male db/db mice, once daily gavage for 9 days; measured at day 9 after 3 hours fasting after dosing, tail blood, Roche Strips (FIG. 4). The method, then: 7 week-old male db/db (C57BLKS/J-m+/+Lepr^db) mice (n=10) from Jackson Laboratories (Bar Harbor, Me.) were treated once daily with indicated doses of the compound by gavage feeding at each morning for 9 consecutive days. All animals were maintained under standardized conditions (12-hour light/dark cycle, 22° C.). At day 9 of the treatment, blood triglyceride level was measured after 3 hours fasting after dosing by taking tail blood using Roche Strips.

For experiment [2], the system named is db/db mice. The experiment can be described thus: Blood glucose lowering in db/db mice in vivo. The following applies: male db/db mice, once daily gavage for 9 days; measured at day 9 after 3 hours fasting after dosing, tail blood, Bayer Strips (FIG. 3). The method, then:
7 week-old male db/db (C57BLKS/J-m+/+Lepr^db) mice (n=10) from Jackson Laboratories (Bar Harbor, Me.) were treated once daily with indicated doses of the compound by gavage feeding at each morning for 9 consecutive days. All animals were maintained under standardized conditions (12-hour light/dark cycle, 22° C.). At day 9 of the treatment, blood glucose level was measured after 3 hours fasting after dosing by taking tail blood using Bayer Strips.

Molecules are shown by their SMILES.

`COC(=O)C(Cc1ccc(OCCOc2ccc3c(c2)CCCC3)cc1)C(=O)OC` [CS-01300012, dimethyl 4-[2-(5,6,7,8-tetrahydro-2-naphthoxy)ethoxy] benzylmalonate]: the blood triglyceride level result in the experiment on db/db mice [1] is on record as “effective in lowering blood triglyceride level”. In the experiment on db/db mice [2], the blood glucose level result is “effective in lowering blood glucose level”.
